Reference: paper PMC12703733, “Probing Guanidino Pendant or Bridged Groups in Cyclic Antimicrobial Peptides Derived from Temporin L: A Strategy to Improve Efficacy against Gram-Negative Bacteria” (Journal of Medicinal Chemistry, 2025)
In brackets after ≈: the same amount, converted by molar mass. Where two headings read alike, the source gives them in different places. Marks after values point to notes of the source that are not given here. Bridge positions count the residues as written; N and C are the ends. Square brackets hold non-standard residues; d marks the D form. Peptide text beside a SMILES is read from it.

What was measured:
[1] = tested on: S. aureus ATCC 25923; design: method as in Bellavita et al.; details: previously determined for peptide 12, ref Bellavita et al., cited from earlier work
[2] = tested on: all bacteria tested; assay: MIC panel, geometric mean over all strains; assay type: cell-based; details: geometric mean of the MICs against all bacteria tested
Procedure: (§1) The antimicrobial efficacy of the TLcyc analogues was assessed against a representative panel of Gram-positive and Gram-negative bacterial strains, by determining their minimal inhibitory concentrations (MIC), as summarized in Table . To provide an integrated measure of antimicrobial potency, we calculated the geometric mean (GM) of MIC values across all strains (GMall), as well as separately for Gram-positive (GMGram+) and Gram-negative (GMGram–) bacteria.
(§2) Bacterial strains used in this study were the Gram-positive S. aureus ATCC 25923, S. epidermidis ATCC 12228, B. megaterium BM11, S. agalactiae ATCC 27591, E. faecalis ATCC 29212 and the Gram-negative E. coli ATCC 25922, P. aeruginosa ATCC 27853, A. baumannii ATCC 19606, E. coli D21 and P. aeruginosa PAO1. […] Bacterial cells in the mid log phase were diluted in Muller Hinton (MH) at a concentration of 2 × 10^6 cell/mL. Aliquots of 50 μL of this bacterial suspension were added to 50 μL of MH containing serial 2-fold dilutions of the peptides (from 100 to 0.19 μM) in the wells a 96-well plate. Ciprofloxacin was used as antibiotic control. The plate was then incubated at 37 °C. MICs were obtained from three identical readings of four independent experiments.

[3] = tested on: E. faecalis ATCC 29212; assay: microbe, parasite or virus in culture; assay type: cell-based; details: ATCC 29212
In short: (§3)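 Broth MIC determination: cells grown to mid-log phase, diluted to 2 × 10^6 cell/mL in Mueller Hinton, then incubated with compound at 37 °C.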

[4] = tested on: P. aeruginosa PAO1; assay: microbe, parasite or virus in culture; assay type: cell-based; details: PAO1
In short: as §3

[5] = tested on: E. coli D21; assay: microbe, parasite or virus in culture; assay type: cell-based; details: D21
In short: as §3

[6] = tested on: S. agalactiae ATCC 27591; assay: microbe, parasite or virus in culture; assay type: cell-based; details: ATCC 27591
In short: as §3

[7] = design: method as in Bellavita et al.; details: CD in H2O; previously determined for peptide 12; ref Bellavita et al.; cited from earlier work
[8] = tested on: B. megaterium BM11; design: method as in Bellavita et al.; details: previously determined for peptide 12, ref Bellavita et al., cited from earlier work
[9] = tested on: Gram-positive bacteria tested; assay: MIC panel, Gram-positive strains (geometric mean, range); assay type: cell-based; details: geometric mean of the MICs against Gram-positive bacteria tested
Procedure: as §1, §2

[10] = tested on: S. epidermidis ATCC 12228; design: method as in Bellavita et al.; details: previously determined for peptide 12, ref Bellavita et al., cited from earlier work
[11] = tested on: Gram-negative bacteria tested; assay: MIC panel, Gram-negative strains (geometric mean); assay type: cell-based; details: geometric mean of the MICs against Gram-negative bacteria tested
Procedure: as §1, §2

[12] = tested on: A. baumannii ATCC 19606; design: method as in Bellavita et al.; details: previously determined for peptide 12, ref Bellavita et al., cited from earlier work
[13] = tested on: E. coli ATCC 25922; design: method as in Bellavita et al.; details: previously determined for peptide 12, ref Bellavita et al., cited from earlier work
[14] = tested on: P. aeruginosa ATCC 27853; design: method as in Bellavita et al.; details: previously determined for peptide 12, ref Bellavita et al.; cited from earlier work

Q: For `CC[C@H](C)[C@H](NC(=O)[C@H](CCCNC(=N)N)NC(=O)[C@@H]1CCC(=O)NCCCC[C@H](NC(=O)[C@H](Cc2ccccc2)NC(=O)[C@H](Cc2c[nH]c3ccccc23)NC(=O)[C@@H]2CCCN2C(=O)[C@@H](NC(=O)[C@@H](N)Cc2ccccc2)C(C)C)C(=O)N[C@@H](CCCCN)C(=O)N[C@@H](Cc2ccccc2)C(=O)N[C@H](CC(C)C)C(=O)N1)C(=O)N[C@@H](CC(C)C)C(N)=O` [Peptide 1, FVPWF[KKFlE]RIL] (H-FVPWFKKF[dL]ERIL-NH2; lactam 6-10), which MIC ([1]; listed as 1 (TL cyc )) is on record?
A: 3.12 ^a μM

Q: What about the MIC [1] of the same molecule?
A: 3.12 µM (≈ 5.32 µg/mL)

Q: And the “geometric mean GMall” value [2]?
A: 7.67 µM

Q: What about the MIC [3] of the same molecule?
A: 6.25 µM (≈ 10.7 µg/mL)

Q: And the MIC [4]?
A: 25 µM (≈ 42.6 µg/mL)

Q: What about the MIC [5] of the same molecule?
A: 12.5 µM (≈ 21.3 µg/mL)

Q: What about the MIC [6] of the same molecule?
A: 3.12 µM (≈ 5.32 µg/mL)

Q: And the “Content in water (%) random” value [7]?
A: 55%

Q: What about the “Content in water (%) α-helix” value [7] of the same molecule?
A: 2%

Q: And the “Content in water (%) β-strand” value [7]?
A: 41%

Q: What about the MIC ([8]; listed as 1 (TL cyc )) of the same molecule?
A: 1.56 ^a μM

Q: And the MIC [8]?
A: 1.56 µM (≈ 2.66 µg/mL)

Q: What about the “geometric mean GMGram+” value [9] of the same molecule?
A: 3.12 µM

Q: And the MIC ([10]; listed as 1 (TL cyc ))?
A: 3.12 ^a μM

Q: And the MIC [10]?
A: 3.12 µM (≈ 5.32 µg/mL)

Q: And the “geometric mean GMGram–” value [11]?
A: 18.9 µM

Q: And the MIC ([12]; listed as 1 (TL cyc ))?
A: 3.12 ^a μM

Q: And the MIC [12]?
A: 3.12 µM (≈ 5.32 µg/mL)

Q: What about the MIC ([13]; listed as 1 (TL cyc )) of the same molecule?
A: 25 ^a μM

Q: What about the MIC [13] of the same molecule?
A: 25 µM (≈ 42.6 µg/mL)

Q: What about the MIC [14] of the same molecule?
A: 100 ^a μM
